Molecular target: T1, NOX (Homo sapiens, UniProt P04839)
T1 construct: HL60 differentiation to the neutrophil phenotype was triggered by adding Me2SO; endogenous in cells; host or cells: HL-60 cells differentiated with DMSO (1.25% v/v, 6 days) to the neutrophil phenotype
T1 sequence (P04839 1-570): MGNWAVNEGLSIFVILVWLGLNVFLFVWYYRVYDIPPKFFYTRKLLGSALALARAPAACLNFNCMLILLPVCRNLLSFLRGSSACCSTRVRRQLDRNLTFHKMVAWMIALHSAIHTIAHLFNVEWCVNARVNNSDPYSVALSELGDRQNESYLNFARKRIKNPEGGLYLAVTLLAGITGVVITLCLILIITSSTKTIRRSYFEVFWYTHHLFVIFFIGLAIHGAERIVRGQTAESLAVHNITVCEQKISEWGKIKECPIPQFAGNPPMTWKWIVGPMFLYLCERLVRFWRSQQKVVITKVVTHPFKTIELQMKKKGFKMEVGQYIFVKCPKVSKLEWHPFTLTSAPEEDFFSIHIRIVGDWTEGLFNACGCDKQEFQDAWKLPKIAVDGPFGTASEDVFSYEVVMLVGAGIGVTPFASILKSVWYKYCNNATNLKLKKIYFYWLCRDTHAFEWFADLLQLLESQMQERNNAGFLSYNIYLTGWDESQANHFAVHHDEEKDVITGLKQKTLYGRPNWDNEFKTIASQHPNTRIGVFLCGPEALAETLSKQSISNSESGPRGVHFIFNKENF
T1 sequence (P13498 1-195 partner): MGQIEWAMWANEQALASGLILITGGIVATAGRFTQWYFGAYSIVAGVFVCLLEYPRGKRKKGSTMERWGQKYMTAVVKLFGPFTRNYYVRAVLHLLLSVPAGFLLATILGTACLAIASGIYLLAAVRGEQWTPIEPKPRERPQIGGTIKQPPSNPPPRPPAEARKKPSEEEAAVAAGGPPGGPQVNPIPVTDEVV
Test: Amplex Red measurement of extracellular hydrogen peroxide (NOX activity) using DMSO-differentiated HL60 cells
Assay type: cell-based
Conditions: DMSO-differentiated HL60 cells; for Inhibition (%) of NOX activity: test concentration not given
Protocol: The activity of the compounds according to the invention may be tested for their activity in the inhibition or reduction of formation of reactive oxygen species (ROS) from oxygen in cells. The activity of the compounds is tested in the following cell cultures by different techniques such as nitroblue tetrazolium, Amplex Red, Chemiluminescence (Luminol) and 2′,7′-dichlorodihydrofluorescein diacetate (H2DCF-DA) according to the protocols detailed below.
Human acute myeloid leukemia cell line HL-60 was cultured in RPMI 1640 (Invitrogen) supplemented with 10% heat-inactivated calf serum, 2 mM glutamine, 100 U/mL penicillin (Sigma), and 100 μg streptomycin (Sigma) at 37° C. under a humidified atmosphere of 5% CO2. HL60 differentiation to the neutrophil phenotype was triggered by adding Me2SO (final concentration 1.25% v/v for 6 days) to the culture medium.
Extracellular hydrogen peroxide was measured using Amplex UltraRed (Molecular Probes). Cells were trypsinized (1× Trypsin-EDTA), collected by centrifugation, and resuspended in HBSS supplemented with 1% glucose. Cells were seeded into black 96-well plates at a density of 50,000 cells in 200 μl testing buffer (HBSS 1% glucose containing 0.005 U/mL horseradish peroxidase (Roche) and 50 μM Amplex Red in the presence or absence of compounds according to the invention. As a control, DPI was included at a final concentration of 10 μM The plates were placed in the fluorescent Optima Fluorescent plate reader and kept at 37° C. during 20 min. Fluorescence was measured for […] with excitation and emission wavelengths of 544 nm and 590 nm respectively. NOX activities were expressed as % of the activity in control cells. Residual activity of DPI-treated cells was usually <10%.
The Table 2 below summarizes the percentage of inhibition of NOX activity as measured by Amplex Red using DMSO-differentiated HL60 cells as described above:
The Table 3 below summarizes the IC50 of NOX activity as measured by Amplex Red using DMSO-differentiated HL60 cells as described above: […]

Structure (SMILES) | IC50 [µM] | Inhibition (%) of NOX activity [%]
Cn1[nH]c2cc(=O)n(CC3CNC(=O)C3)c(-c3ccc(Cl)cc3)c2c1=O (stereo not drawn) [Compound 100, 4-(4-chlorophenyl)-2-methyl-5-[(5-oxopyrrolidin-3-yl)methyl]-1H-pyrazolo[4,3-c] pyridine-3,6(2H,5H)-dione] | – | 90
Cn1c(COc2ccc(F)cc2)c2c(=O)n(CCN3CCOCC3)[nH]c2cc1=O [Compound 86, 4-[(4-fluorophenoxy)methyl]-5-methyl-2-(2-morpholin-4-ylethyl)-1H-pyrazolo[4,3-c] pyridine-3,6(2H,5H)-dione] | < 5 | 87
COCCn1[nH]c2cc(=O)n(CCc3ccccn3)c(C)c2c1=O [Compound 15, 2-(2-Methoxyethyl)-4-Methyl-5-(2-Pyridin-2-Ylethyl)-1H-Pyrazolo[4,3-c]Pyridine-3,6(2H,5H)-Dione] | < 5 | 72
COCCn1[nH]c2cc(=O)n(CCOC)c(-c3ccc(Cl)cc3)c2c1=O [Compound 58, 4-(4-chlorophenyl)-2,5-bis(2-methoxyethyl)-1H-pyrazolo[4,3-c]pyridine-3,6 (2H,5H)-dione] | < 5 | 95
O=c1c2c(COc3ccc(F)cc3)n(Cc3ccc(Cl)cc3)c(=O)cc2[nH]n1CCN1CCOCC1 [Compound 51, 5-(4-chlorobenzyl)-4-[(4-fluorophenoxy)methyl]-2-(2-morpholin-4-ylethyl)-1H-pyrazolo[4,3-c]pyridine-3,6 (2H,5H)-dione] | < 5 | 76
Cc1c2c(=O)n(CCOc3ccc(Cl)cc3)[nH]c2cc(=O)n1Cc1ccccn1 [Compound 24, 2-[2-(4-chlorophenoxy)ethyl] 4-methyl-5-(pyridin-2-ylmethyl)-1H-pyrazolo[4,3-c] pyridine-3,6(2H,5H)-dione] | < 5 | 79
Cn1[nH]c2cc(=O)n(CC3CN(Cc4ccccc4)CCO3)c(-c3ccc(Cl)cc3)c2c1=O (stereo not drawn) [Compound 97, 5-[(4-benzylmorpholin-2-yl)methyl]-4-(4-chlorophenyl)-2-methyl-1H-pyrazolo[4,3-c] pyridine-3,6(2H,5H)-dione] | – | 89
Cc1c2c(=O)n(CC(C)C)[nH]c2cc(=O)n1Cc1cccnc1 [Compound 44, 4-methyl-2-(2-methylpropyl)-5-(pyridin-3-ylmethyl)-1H-pyrazolo[4,3-c]pyridine-3,6 (2H,5H)-dione] | < 5 | 78
Cc1c2c(=O)n(Cc3ccc(Cl)cc3)[nH]c2cc(=O)n1Cc1ccccn1 [Compound 2, 2-(4-Chlorobenzyl)-4-Methyl-5-(Pyridin-2-Ylmethyl)-1H-Pyrazolo[4,3-c]Pyridine-3,6(2H,5H)-Dione] | < 5 | 61
Cc1c2c(=O)n(C3CCCCC3)[nH]c2cc(=O)n1Cc1ccccc1CN1CCOCC1 [Compound 13, 2-Cyclohexyl-4-Methyl-5-[2-(Morpholin-4-Ylmethyl)Benzyl]-1H-Pyrazolo[4,3-c]Pyridine-3,6(2H,5H)-Dione] | < 5 | 56
Cc1c2c(=O)n(CC(C)C)[nH]c2cc(=O)n1C1CCc2ccccc21 (stereo not drawn) [Compound 48, 5-(2,3-dihydro-1H-inden-1-yl)-4-methyl-2-(2-methylpropyl)-1H-pyrazolo[4,3-c] pyridine-3,6(2H,5H)-dione] | < 5 | 91

The next lines start with the values.

IC50 [µM] | Inhibition (%) of NOX activity [%] | Structure (SMILES)
< 5 | 72 | COCCn1[nH]c2cc(=O)n(CC(=O)N3CCN(Cc4ccccc4)CC3)c(C)c2c1=O [Compound 35, 5-[2-(4-benzylpiperazin-1-yl)-2-oxoethyl]-2-(2-methoxyethyl)-4-methyl-1H-pyrazolo [4,3-c]pyridine-3,6(2H,5H)-dione]
< 5 | 90 | COCCn1[nH]c2cc(=O)n(CCOC)c(CCCOc3ccccc3)c2c1=O [Compound 94, 2,5-bis(2-methoxyethyl)-4-(3-phenoxypropyl)-1H-pyrazolo[4,3-c]pyridine-3,6 (2H,5H)-dione]
< 5 | 75 | COCCn1[nH]c2cc(=O)n(CC(=O)N3CCOCC3)c(C)c2c1=O [Compound 20]
< 5 | 79 | CCCCc1c2c(=O)n(C)[nH]c2cc(=O)n1Cc1ccc(Cl)cc1 [Compound 8, 4-Butyl-5-(4-Chlorobenzyl)-2-Methyl-1H-Pyrazolo[4,3-c]Pyridine-3,6(2H,5H)-Dione]
< 5 | 73 | COCCn1[nH]c2cc(=O)n(-c3cccc(NC(C)=O)c3)c(C)c2c1=O [Compound 19, N-{3-[2-(2-methoxyethyl)-4-methyl-3,6-dioxo-1,2,3,6-tetrahydro-5H-pyrazolo[4,3-c]pyridin-5-yl]phenyl} acetamide]
< 5 | 86 | CCOCCCn1c(COCc2ccccc2)c2c(=O)n(CCN3CCOCC3)[nH]c2cc1=O [Compound 89, 4-[(benzyloxy)methyl]-5-(3-ethoxypropyl)-2-(2-morpholin-4-ylethyl)-1H-pyrazolo[4,3-c]pyridine-3,6 (2H,5H)-dione]
< 5 | 67 | Cc1c2c(=O)n(Cc3ccccc3)[nH]c2cc(=O)n1Cc1ccccn1 [Compound 1, 2-Benzyl-4-Methyl-5-(Pyridin-2-Ylmethyl)-1H-Pyrazolo[4,3-c]Pyridine-3,6(2H,5H)-Dione]
< 5 | 48 | Cc1c2c(=O)n(C)[nH]c2cc(=O)n1C [Compound 5, 2,4,5-Trimethyl-1H-Pyrazolo[4,3-c]Pyridine-3,6(2H,5H)-Dione]
< 5 | 74 | Cc1c2c(=O)n(C)[nH]c2cc(=O)n1Cc1ccco1 [Compound 6, 5-(Furan-2-Ylmethyl)-2,4-Dimethyl-1H-Pyrazolo[4,3-c]Pyridine-3,6(2H,5H)-Dione]
< 5 | 95 | COCCn1c(CCCOc2ccccc2)c2c(=O)n(CCN3CCOCC3)[nH]c2cc1=O [Compound 74, 5-(2-methoxyethyl)-2-(2-morpholin-4-ylethyl)-4-(3-phenoxypropyl)-1H-pyrazolo[4,3-c]pyridine-3,6 (2H,5H)-dione]
< 5 | 77 | Cc1c2c(=O)n(CCN3CCOCC3)[nH]c2cc(=O)n1Cc1ccc(Cl)cc1 [Compound 10, 5-(4-Chlorobenzyl)-4-Methyl-2-(2-Morpholin-4-Ylethyl)-1H-Pyrazolo[4,3-c]Pyridine-3,6(2H,5H)-Dione]
< 5 | 74 | COc1cccc(Cc2c3c(=O)n(Cc4ccccc4)[nH]c3cc(=O)n2Cc2ccccn2)c1 [Compound 21, 2-benzyl-4-(3-methoxybenzyl)-5-(pyridin-2-ylmethyl)-1H-pyrazolo[4,3-c] pyridine-3,6(2H,5H)-dione]
< 5 | 78 | CC(=O)Nc1cccc(Cn2c(C)c3c(=O)n(CCc4ccccc4)[nH]c3cc2=O)c1 [Compound 28, N-(3-{[4-methyl-3,6-dioxo-2-(2-phenylethyl)-1,2,3,6-tetrahydro-5H-pyrazolo[4,3-c]pyridin-5-yl]methyl}phenyl) acetamide]
< 5 | 90 | COCCn1[nH]c2cc(=O)n(C)c(-c3ccc(Cl)cc3)c2c1=O [Compound 77, 4-(4-chlorophenyl)-2-(2-methoxyethyl)-5-methyl-1H-pyrazolo[4,3-c]pyridine-3,6 (2H,5H)-dione]

From patent US9006238B2, “Pyrazolo pyridine derivatives as NADPH oxidase inhibitors” (Genkyotex SA, priority 2008, dated 2015)
